Results as given in patent US5744339A, “Thiomethylene group-containing aldehyde cysteine and serine protease inhibitors” (Cephalon, Inc., priority 1996, dated 1998).

Legend:
Assay type in all cases: biochemical
α-chymotrypsin = target: T1, α-chymotrypsin (Bos taurus, UniProt P00766); assay: Inhibition of α-chymotrypsin (serine protease) activity; conditions: 10 μM inhibitor; 0.03 mM SuccAla-Ala-Pro-Phe-AMC, pH 7.5; read-out: Chymotrypsin % I @ 10 μM
T1 construct: purchased Sigma Chem. Co. C-3142
Protocol: (§1) To evaluate inhibitory activity, stock solutions (40 times concentrated) of each compound to be tested were prepared in 100% anhydrous DMSO and 5 μL of each inhibitor preparation were aliquoted into each of three wells of a 96-well plate. Calpain I, prepared by a modification of the method of W. J. Lee et al. (Biochem. Internatl. 22: 163-171 (1990)), was diluted into assay buffer (i.e., 50 mM Tris, 50 mM NaCl, 1 mM EDTA, 1 mM EGTA, and 5 mM β-mercaptoethanol, pH 7.5 including 0.2 mM Succ-Leu-Tyr-MNA) and 175 μL aliquoted into the same wells containing the independent inhibitor stocks, as well as to positive control wells containing 5 μL DMSO, but no compound. To start the reaction, 20 μL of 50 mM CaCl2 in assay buffer was added to all wells of the plate, excepting three, which were used as background signal baseline controls. Substrate hydrolysis was monitored every 5 minutes for a total of 30 minutes using a Fluoroskan II fluorescence plate reader. Substrate hydrolysis in the absence of inhibitor was linear for up to 15 minutes.
(§2) Inhibition of calpain I activity was calculated as the percent decrease in the rate of substrate hydrolysis in the presence of inhibitor relative to the rate in its absence. Comparison between the inhibited and control rates was made within the linear range for substrate hydrolysis. For screening, compounds were tested at 10 μm. Compounds having 50% inhibition at 10 μM were considered active. The IC50s of inhibitors (i.e., the concentration yielding 50% inhibition) were determined from the percent decrease in the rates of substrate hydrolysis in the presence of five to seven different concentrations of the test compound. The results were plotted as % inhibition versus log inhibitor concentration and the IC50 was calculated from linear regression of the data.
(§3) Additionally,because α-chymotrypsin is not a calcium sensitive enzyme and is constitutively active, following addition of inhibitor stocks to the 96 well plates, 100 μl of a 2-fold concentrated stock of enzyme in dilution buffer was first added and the reaction started by addition of 10 μl of a 2-fold concentrated stock of substrate in assay buffer. Substrate hydrolysis was monitored every 5 minutes up to 30 minutes using a Fluoroskan II ([…]). The result is expressed as inhibition of α-chymotrypsin at 10 μM.

thrombin = target: T2, thrombin (Homo sapiens, UniProt P00734); assay: Inhibition of thrombin (serine protease) activity; conditions: 10 μM inhibitor; 25 μM Bz-Phe-Val-Arg-AMC, pH 7.5; read-out: Thrombin % I @ 10 μM
T2 construct: purchased Sigma Chem. Co. T-7009
Protocol: as §3
Inhibition of thrombin (Sigma Chem. Co. Cat. #T-7009) was evaluated as described for chymotrypsin except that the assay was performed in 50 mM Tris, 10 mM CaCl2, pH 7.5 and the substrate was 25 μM Bz-Phe-Val-Arg-AMC (Bachem cat#I-1080).

cathepsin L = target: T3, cathepsin L (Homo sapiens, UniProt P07711); assay: Inhibition of cathepsin L (cysteine protease) activity; conditions: 0.006 mM Cbz-Phe-Arg-AMC, pH 6.0; read-out: Cat L IC50
T3 construct: purchased Calbiochem 219402
T3 sequence (P07711 114-288 limits assumed): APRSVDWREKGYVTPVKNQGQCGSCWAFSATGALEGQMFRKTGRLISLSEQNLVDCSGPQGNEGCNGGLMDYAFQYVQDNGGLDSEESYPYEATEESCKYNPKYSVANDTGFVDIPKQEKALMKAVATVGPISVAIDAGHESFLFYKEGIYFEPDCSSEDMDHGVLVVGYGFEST
T3 sequence (P07711 292-333 limits assumed): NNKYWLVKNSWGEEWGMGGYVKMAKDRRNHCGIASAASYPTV
Protocol: as §1, §2
Additionally, the order of reagents added to the plate was altered because both enzymes are constitutively active. Following inhibitor addition to the plates, appropriate 2× concentrated stock dilutions of the enzyme preparations were made in assay buffer and 10 ul added to each well.
The assay was initiated by addition of 100 ul of 2× concentrated stock dilution of substrate in assay buffer. Substrate hydrolysis was monitored using a Fluoroskan II (ex=390 nm; em=460 nm).

cathepsin B = target: T4, cathepsin B (Homo sapiens, UniProt P07858); assay: Inhibition of cathepsin B (cysteine protease) activity; conditions: 0.1 mM Cbz-Phe-Arg-AMC, pH 6.0; read-out: Cat B IC50
T4 construct: purchased Calbiochem 219364
Protocol: To evaluate inhibitory activity, stock solutions (40 times concentrated) of each compound to be tested were prepared in 100% anhydrous DMSO and 5 μL of each inhibitor preparation were aliquoted into each of three wells of a 96-well plate. Calpain I, prepared by a modification of the method of W. J. Lee et al. (Biochem. […] To start the reaction, 20 μL of 50 mM CaCl2 in assay buffer was added to all wells of the plate, excepting three, which were used as background signal baseline controls. Substrate hydrolysis was monitored every 5 minutes for a total of 30 minutes using a Fluoroskan II fluorescence plate reader. Substrate hydrolysis in the absence of inhibitor was linear for up to 15 minutes. Inhibition of calpain I activity was calculated as the percent decrease in the rate of substrate hydrolysis in the presence of inhibitor relative to the rate in its absence. Comparison between the inhibited and control rates was made within the linear range for substrate hydrolysis. For screening, compounds were tested at 10 μm. Compounds having 50% inhibition at 10 μM were considered active. […] The results were plotted as % inhibition versus log inhibitor concentration and the IC50 was calculated from linear regression of the data. […] Additionally, the order of reagents added to the plate was altered because both enzymes are constitutively active. Following inhibitor addition to the plates, appropriate 2× concentrated stock dilutions of the enzyme preparations were made in assay buffer and 10 ul added to each well. The assay was initiated by addition of 100 ul of 2× concentrated stock dilution of substrate in assay buffer. Substrate hydrolysis was monitored using a Fluoroskan II (ex=390 nm; em=460 nm).

Calpain I = target: T5, Calpain I (Homo sapiens, UniProt P07384); assay: Inhibition of calpain I (cysteine protease) activity; conditions: 0.2 mM Succ-Leu-Tyr-MNA, pH 7.5, CaCl2 start
T5 construct: made in house
T5 sequence (P07384 1-714): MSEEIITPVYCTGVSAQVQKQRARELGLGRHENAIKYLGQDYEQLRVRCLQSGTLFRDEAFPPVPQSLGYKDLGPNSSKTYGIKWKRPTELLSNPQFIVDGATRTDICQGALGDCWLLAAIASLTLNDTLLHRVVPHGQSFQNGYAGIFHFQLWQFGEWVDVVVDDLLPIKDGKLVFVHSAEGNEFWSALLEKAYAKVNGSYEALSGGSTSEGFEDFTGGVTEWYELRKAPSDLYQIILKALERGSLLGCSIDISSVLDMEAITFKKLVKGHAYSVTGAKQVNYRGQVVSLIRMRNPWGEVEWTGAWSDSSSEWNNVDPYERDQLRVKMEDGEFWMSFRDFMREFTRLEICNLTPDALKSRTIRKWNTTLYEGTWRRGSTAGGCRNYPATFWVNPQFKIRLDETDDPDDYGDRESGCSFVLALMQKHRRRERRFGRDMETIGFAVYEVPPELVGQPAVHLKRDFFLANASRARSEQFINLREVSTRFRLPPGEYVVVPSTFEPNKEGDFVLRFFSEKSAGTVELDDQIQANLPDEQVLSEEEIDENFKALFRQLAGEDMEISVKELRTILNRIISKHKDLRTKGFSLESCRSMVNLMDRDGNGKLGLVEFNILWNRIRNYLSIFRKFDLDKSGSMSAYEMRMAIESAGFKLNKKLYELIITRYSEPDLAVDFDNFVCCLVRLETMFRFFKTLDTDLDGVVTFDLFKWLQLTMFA
T5 sequence (P04632 1-268 partner): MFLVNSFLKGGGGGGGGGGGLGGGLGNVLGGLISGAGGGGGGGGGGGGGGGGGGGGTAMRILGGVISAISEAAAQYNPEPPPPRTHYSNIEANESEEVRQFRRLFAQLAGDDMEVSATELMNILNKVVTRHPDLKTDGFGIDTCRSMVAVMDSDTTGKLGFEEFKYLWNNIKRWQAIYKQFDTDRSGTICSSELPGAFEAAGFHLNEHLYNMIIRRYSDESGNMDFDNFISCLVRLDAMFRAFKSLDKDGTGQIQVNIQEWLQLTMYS
Protocol: To evaluate inhibitory activity, stock solutions (40 times concentrated) of each compound to be tested were prepared in 100% anhydrous DMSO and 5 μL of each inhibitor preparation were aliquoted into each of three wells of a 96-well plate. Calpain I, prepared by a modification of the method of W. J. Lee et al. (Biochem. […] To start the reaction, 20 μL of 50 mM CaCl2 in assay buffer was added to all wells of the plate, excepting three, which were used as background signal baseline controls. Substrate hydrolysis was monitored every 5 minutes for a total of 30 minutes using a Fluoroskan II fluorescence plate reader. Substrate hydrolysis in the absence of inhibitor was linear for up to 15 minutes. Inhibition of calpain I activity was calculated as the percent decrease in the rate of substrate hydrolysis in the presence of inhibitor relative to the rate in its absence. Comparison between the inhibited and control rates was made within the linear range for substrate hydrolysis. For screening, compounds were tested at 10 μm. Compounds having 50% inhibition at 10 μM were considered active. […] The results were plotted as % inhibition versus log inhibitor concentration and the IC50 was calculated from linear regression of the data.

inhibition at 10 µM (α-chymotrypsin) [%] | inhibition at 10 µM (thrombin) [%] | IC50 (cathepsin L) [nM] | IC50 (cathepsin B) [nM] | IC50 (Calpain I) [nM] | Compound
12 | 2 | 32 | 4500 | 500 | CC(C)C[C@@H](CCS(=O)(=O)c1ccc2ccccc2c1)C(=O)N[C@H](C=O)CC(C)C [Compound 9, 2-Naphthylsulfonyl--CH2 CH2 CH(iBu)CO--Leu--H]
11 | 1 | 3 | 150 | 50 | CC(C)C[C@H](CCS(=O)(=O)c1ccc2ccccc2c1)C(=O)N[C@H](C=O)CC(C)C [Compound 10, 2-Naphthylsulfonyl--CH2 CH2 CH(iBu)CO--Leu--H]
11 | 5 | 8 | 60 | 75 | CC(C)CC(CCSc1ccc2ccccc2c1)C(=O)N[C@H](C=O)CC(C)C (some centres unmarked) [Compound 11, 2-Naphthyl--SCH2 CH2 CH(iBu)CO--Leu--H]
18 | 2 | 3 | 60 | 30 | CC(C)CC(CC[S+]([O-])c1ccc2ccccc2c1)C(=O)N[C@H](C=O)CC(C)C (some centres unmarked) [Compound 13, 2-Naphthyl--S(O)--CH2 CH2 CH(iBu)CO--Leu--H]
